{"source": "paper PMC5218480", "about": "(PLoS ONE, 2017)", "test_system": "MV-4-11 cells", "assay": "Gene expression microarray analysis (Affymetrix PrimeView) and GSEA", "type": "cell-based, human", "parameters": "RFU PODN (11730768_x_at) / Fold change /veh PODN (11730768_x_at) / RFU LINC00158 (11744669_a_at) / Fold change /veh LINC00158 (11744669_a_at) / RFU DUSP10 (11751237_a_at) / Fold change /veh DUSP10 (11751237_a_at) / RFU ID3 (11757404_x_at) / Fold change /veh ID3 (11757404_x_at) / RFU PLEKHG5 (11737974_s_at) / Fold change /veh PLEKHG5 (11737974_s_at) / RFU LRRC4B (11730491_at) / Fold change /veh LRRC4B (11730491_at) / RFU GIMAP4 (11747438_a_at) / Fold change /veh GIMAP4 (11747438_a_at) / RFU KRT8 (11758183_x_at) / Fold change /veh KRT8 (11758183_x_at) / RFU CNN1 (11734310_a_at) / Fold change /veh CNN1 (11734310_a_at) / RFU VPS37D (11726825_at) / Fold change /veh VPS37D (11726825_at) / RFU C10orf10 (11716522_x_at) / Fold change /veh C10orf10 (11716522_x_at) / RFU KIR2DL2 /// KIR2DL4 /// KIR2DL5A /// KIR2DL5B /// KIR2DS1 /// KIR2DS2 /// KIR2DS3 /// KIR2DS4 /// KIR3DL3 /// KIR3DL3 /// KIR3DS1 (11738374_at) / Fold change /veh KIR2DL2 /// KIR2DL4 /// KIR2DL5A /// KIR2DL5B /// KIR2DS1 /// KIR2DS2 /// KIR2DS3 /// KIR2DS4 /// KIR3DL3 /// KIR3DL3 /// KIR3DS1 (11738374_at) / RFU C1QL1 (11718748_at) / Fold change /veh C1QL1 (11718748_at) / RFU TMPRSS4 (11747572_a_at) / Fold change /veh TMPRSS4 (11747572_a_at) / RFU HAMP (11756126_x_at) / Fold change /veh HAMP (11756126_x_at) / RFU RNFT2 (11725882_a_at) / Fold change /veh RNFT2 (11725882_a_at) / RFU NR4A2 (11747474_a_at) / Fold change /veh NR4A2 (11747474_a_at) / RFU ABCC12 (11746883_a_at) / Fold change /veh ABCC12 (11746883_a_at) / RFU TMEM136 (11760407_x_at) / Fold change /veh TMEM136 (11760407_x_at) / RFU CLDN22 /// WWC2 (11732394_at) / Fold change /veh CLDN22 /// WWC2 (11732394_at) / RFU HLA-DPB1 (11760878_x_at) / Fold change /veh HLA-DPB1 (11760878_x_at) / RFU SPINT1 (11716480_a_at) / Fold change /veh SPINT1 (11716480_a_at) / RFU GAP43 (11754022_s_at) / Fold change /veh GAP43 (11754022_s_at) / RFU A4GNT (11735810_at) / Fold change /veh A4GNT (11735810_at) / RFU PRB3 (11715151_x_at) / Fold change /veh PRB3 (11715151_x_at) / RFU TUBB4B (11761932_at) / Fold change /veh TUBB4B (11761932_at) / RFU CAPN14 (11732068_a_at) / Fold change /veh CAPN14 (11732068_a_at) / RFU TMCC2 (11721928_a_at) / Fold change /veh TMCC2 (11721928_a_at) / RFU IRGQ (11745062_a_at) / Fold change /veh IRGQ (11745062_a_at) / RFU FAM174B (11720279_a_at) / Fold change /veh FAM174B (11720279_a_at) / RFU TMPRSS4 (11748680_a_at) / Fold change /veh TMPRSS4 (11748680_a_at) / RFU FAM212B (11763350_a_at) / Fold change /veh FAM212B (11763350_a_at) / RFU PLEKHG5 (11743358_a_at) / Fold change /veh PLEKHG5 (11743358_a_at) / RFU ZSCAN30 (11745921_a_at) / Fold change /veh ZSCAN30 (11745921_a_at) / RFU CMKLR1 (11741424_a_at) / Fold change /veh CMKLR1 (11741424_a_at) / RFU LOC101060620 /// MAPK8IP1 (11723275_at) / Fold change /veh LOC101060620 /// MAPK8IP1 (11723275_at) / RFU SPTSSB (11747773_x_at) / Fold change /veh SPTSSB (11747773_x_at) / RFU PRSS12 (11739890_at) / Fold change /veh PRSS12 (11739890_at) / RFU BIN1 (11741810_x_at) / Fold change /veh BIN1 (11741810_x_at) / RFU WNT11 (11732464_a_at) / Fold change /veh WNT11 (11732464_a_at) / RFU C10orf10 (11716521_a_at) / Fold change /veh C10orf10 (11716521_a_at) / RFU C5orf56 (11738089_at) / Fold change /veh C5orf56 (11738089_at) / RFU CYB561 (11721691_x_at) / Fold change /veh CYB561 (11721691_x_at) / RFU ANKRD19P (11752326_a_at) / Fold change /veh ANKRD19P (11752326_a_at) / RFU OR2T12 /// OR2T33 /// OR2T8 (11738714_s_at) / Fold change /veh OR2T12 /// OR2T33 /// OR2T8 (11738714_s_at) / RFU VCAN (11748164_a_at) / Fold change /veh VCAN (11748164_a_at) / RFU JSRP1 (11732532_at) / Fold change /veh JSRP1 (11732532_at) / RFU KRTAP10-11 (11738290_x_at) / Fold change /veh KRTAP10-11 (11738290_x_at) / RFU MYO3A (11730013_a_at) / Fold change /veh MYO3A (11730013_a_at) / RFU EBF3 (11725865_a_at) / Fold change /veh EBF3 (11725865_a_at) / RFU CAMK2N1 (11719241_x_at) / Fold change /veh CAMK2N1 (11719241_x_at) / RFU C5orf56 (11738088_a_at) / Fold change /veh C5orf56 (11738088_a_at) / RFU OLFML3 (11715873_a_at) / Fold change /veh OLFML3 (11715873_a_at) / RFU LOC100653217 /// NTM (11731650_a_at) / Fold change /veh LOC100653217 /// NTM (11731650_a_at) / RFU MAPK11 (11762145_a_at) / Fold change /veh MAPK11 (11762145_a_at) / RFU FIZ1 (11724087_x_at) / Fold change /veh FIZ1 (11724087_x_at) / RFU OASL (11726364_x_at) / Fold change /veh OASL (11726364_x_at) / RFU SOX15 (11748057_x_at) / Fold change /veh SOX15 (11748057_x_at) / RFU CD79A (11719716_a_at) / Fold change /veh CD79A (11719716_a_at) / RFU HIST1H1D (11736915_at) / Fold change /veh HIST1H1D (11736915_at) / RFU CASKIN2 (11723855_a_at) / Fold change /veh CASKIN2 (11723855_a_at) / RFU LOC730098 (11760151_x_at) / Fold change /veh LOC730098 (11760151_x_at) / RFU OR4N2 (11742367_at) / Fold change /veh OR4N2 (11742367_at) / RFU PRRT2 (11749266_a_at) / Fold change /veh PRRT2 (11749266_a_at) / RFU SNX32 (11753110_a_at) / Fold change /veh SNX32 (11753110_a_at) / RFU CDHR5 (11726645_a_at) / Fold change /veh CDHR5 (11726645_a_at) / RFU RCAN1 (11760418_a_at) / Fold change /veh RCAN1 (11760418_a_at) / RFU FAM167A (11723789_a_at) / Fold change /veh FAM167A (11723789_a_at) / RFU FAM26E (11764081_at) / Fold change /veh FAM26E (11764081_at) / RFU ISYNA1 (11749810_s_at) / Fold change /veh ISYNA1 (11749810_s_at) / RFU ACY1 (11761880_at) / Fold change /veh ACY1 (11761880_at) / RFU 11764098_at / Fold change /veh 11764098_at / RFU SAMD14 (11745864_x_at) / Fold change /veh SAMD14 (11745864_x_at) / RFU NPB (11741838_a_at) / Fold change /veh NPB (11741838_a_at) / RFU TMPRSS6 (11731388_a_at) / Fold change /veh TMPRSS6 (11731388_a_at) / RFU KRTAP10-2 (11738614_at) / Fold change /veh KRTAP10-2 (11738614_at) / RFU ARHGAP8 /// PRR5-ARHGAP8 (11727945_x_at) / Fold change /veh ARHGAP8 /// PRR5-ARHGAP8 (11727945_x_at) / RFU KRTAP5-7 /// NADSYN1 (11734609_at) / Fold change /veh KRTAP5-7 /// NADSYN1 (11734609_at) / RFU RASL12 (11751679_a_at) / Fold change /veh RASL12 (11751679_a_at) / RFU CDKN2B (11736163_a_at) / Fold change /veh CDKN2B (11736163_a_at) / RFU PRF1 (11729649_at) / Fold change /veh PRF1 (11729649_at) / RFU, ZNF638 /// ZNF638-IT1 / Fold change vs veh, ZNF638 /// ZNF638-IT1 / RFU, PANK3 / Fold change vs veh, PANK3 / RFU, SH3YL1 / Fold change vs veh, SH3YL1 / RFU, ZEB2 / Fold change vs veh, ZEB2 / RFU, NRIP1 / Fold change vs veh, NRIP1 / RFU, PTTG1IP / Fold change vs veh, PTTG1IP / RFU, CAPN2 / Fold change vs veh, CAPN2 / RFU, MED14 / Fold change vs veh, MED14 / RFU, SNORA58 / Fold change vs veh, SNORA58 / RFU, C1orf63 / Fold change vs veh, C1orf63 / RFU, LRRFIP1 / Fold change vs veh, LRRFIP1 / RFU, NDUFAF7 / Fold change vs veh, NDUFAF7 / RFU, SLC12A2 / Fold change vs veh, SLC12A2 / RFU, IBTK / Fold change vs veh, IBTK / RFU, ESF1 / Fold change vs veh, ESF1 / Fold change vs veh, TMEM50B / RFU, TAOK1 / Fold change vs veh, TAOK1 / RFU, ACBD3 / Fold change vs veh, ACBD3 / RFU, TMA16 / Fold change vs veh, TMA16 / RFU, RWDD3 / Fold change vs veh, RWDD3 / RFU, BCAT1 / Fold change vs veh, BCAT1 / RFU, EDEM3 / Fold change vs veh, EDEM3 / RFU, TMEM33 / Fold change vs veh, TMEM33 / RFU, WDR75 / Fold change vs veh, WDR75 / RFU, AHCTF1 / Fold change vs veh, AHCTF1 / RFU, TFRC / Fold change vs veh, TFRC / RFU, ZDHHC17 / Fold change vs veh, ZDHHC17 / RFU, NOM1 / Fold change vs veh, NOM1 / RFU, ARL8B / Fold change vs veh, ARL8B / RFU, ZBTB11 / Fold change vs veh, ZBTB11 / RFU, TAMM41 / Fold change vs veh, TAMM41 / RFU, KIAA1704 /// LOC100996395 / Fold change vs veh, KIAA1704 /// LOC100996395 / RFU, ING1 / Fold change vs veh, ING1 / RFU, TRMT61B / Fold change vs veh, TRMT61B / RFU, FUBP3 / Fold change vs veh, FUBP3 / RFU, TP53 / Fold change vs veh, TP53 / RFU, TNKS2 / Fold change vs veh, TNKS2 / RFU, ZFP14 / Fold change vs veh, ZFP14 / RFU, ACTR2 / Fold change vs veh, ACTR2 / RFU, PPP3R1 / Fold change vs veh, PPP3R1 / RFU, PIK3R1 / Fold change vs veh, PIK3R1 / RFU, HNRNPA1 / Fold change vs veh, HNRNPA1 / RFU, RNF170 / Fold change vs veh, RNF170 / RFU, ZNF28 / Fold change vs veh, ZNF28 / RFU, RNGTT / Fold change vs veh, RNGTT / RFU, OGT / Fold change vs veh, OGT / RFU, BRD1 / Fold change vs veh, BRD1 / RFU, MARS / Fold change vs veh, MARS / RFU, ZNF655 / Fold change vs veh, ZNF655 / RFU, FAHD1 / Fold change vs veh, FAHD1 / RFU, BDP1 / Fold change vs veh, BDP1 / RFU, LRRCC1 / Fold change vs veh, LRRCC1 / RFU, ARID1A / Fold change vs veh, ARID1A / RFU, ZNF146 / Fold change vs veh, ZNF146 / RFU, ZNF330 / Fold change vs veh, ZNF330 / RFU, GPN3 / Fold change vs veh, GPN3 / RFU, C9orf123 / Fold change vs veh, C9orf123 / RFU, N4BP2L2 / Fold change vs veh, N4BP2L2 / RFU, ARFIP1 / Fold change vs veh, ARFIP1 / RFU, FAM179B / Fold change vs veh, FAM179B / RFU, BCL10 / Fold change vs veh, BCL10 / RFU, UHRF1BP1L / Fold change vs veh, UHRF1BP1L / RFU, BET1 / Fold change vs veh, BET1 / RFU, CNOT2 / Fold change vs veh, CNOT2 / RFU, ZNF268 / Fold change vs veh, ZNF268 / Fold change vs veh, ZNF507 / RFU, DGCR2 / Fold change vs veh, DGCR2 / RFU, WDSUB1 / Fold change vs veh, WDSUB1 / Fold change vs veh, HSP90B1 /// MIR3652 / RFU, ADSS / Fold change vs veh, ADSS / RFU, GK / Fold change vs veh, GK / RFU, ZNF148 / Fold change vs veh, ZNF148 / RFU, TAF9 / Fold change vs veh, TAF9 / RFU, SLC1A5 / Fold change vs veh, SLC1A5 / RFU, SLMO2 / Fold change vs veh, SLMO2 / RFU, ABCC4 / Fold change vs veh, ABCC4 / RFU, LOC101060439 /// RAP1B / Fold change vs veh, LOC101060439 /// RAP1B / RFU, RFX7 / Fold change vs veh, RFX7 / RFU, GTPBP10 / Fold change vs veh, GTPBP10 / RFU, CNEP1R1 / Fold change vs veh, CNEP1R1 / RFU, BIVM-ERCC5 /// ERCC5 / Fold change vs veh, BIVM-ERCC5 /// ERCC5 / RFU, ILF3 / Fold change vs veh, ILF3 / RFU 11762660_at / Fold change /veh 11762660_at / RFU VCAN (11757783_s_at) / Fold change /veh VCAN (11757783_s_at) / RFU DDX43 (11728927_at) / Fold change /veh DDX43 (11728927_at) / RFU KRT8 (11758188_x_at) / Fold change /veh KRT8 (11758188_x_at) / RFU NKD1 (11759106_at) / Fold change /veh NKD1 (11759106_at) / RFU SRD5A1 (11742802_a_at) / Fold change /veh SRD5A1 (11742802_a_at) / RFU TPSAB1 /// TPSB2 (11721975_s_at) / Fold change /veh TPSAB1 /// TPSB2 (11721975_s_at) / RFU GSTM3 (11746129_a_at) / Fold change /veh GSTM3 (11746129_a_at) / RFU IL23R (11737362_x_at) / Fold change /veh IL23R (11737362_x_at) / RFU TMEM51 (11727254_a_at) / Fold change /veh TMEM51 (11727254_a_at) / RFU PIWIL2 (11732686_x_at) / Fold change /veh PIWIL2 (11732686_x_at) / RFU ORM1 (11744905_x_at) / Fold change /veh ORM1 (11744905_x_at) / RFU CCDC152 (11743942_at) / Fold change /veh CCDC152 (11743942_at) / RFU ECM1 (11717891_a_at) / Fold change /veh ECM1 (11717891_a_at) / RFU IL23R (11748794_a_at) / Fold change /veh IL23R (11748794_a_at) / RFU TNFAIP8L3 (11732012_x_at) / Fold change /veh TNFAIP8L3 (11732012_x_at) / RFU MBOAT4 (11741988_at) / Fold change /veh MBOAT4 (11741988_at) / RFU 11764193_at / Fold change /veh 11764193_at / RFU TMEM53 (11763286_at) / Fold change /veh TMEM53 (11763286_at) / RFU MAGEB2 (11727129_at) / Fold change /veh MAGEB2 (11727129_at) / RFU TMEM200A (11744735_a_at) / Fold change /veh TMEM200A (11744735_a_at) / RFU CCDC152 (11751479_a_at) / Fold change /veh CCDC152 (11751479_a_at) / RFU FAM211A (11726209_a_at) / Fold change /veh FAM211A (11726209_a_at) / RFU RGS16 (11746705_a_at) / Fold change /veh RGS16 (11746705_a_at) / RFU VCAN (11755009_s_at) / Fold change /veh VCAN (11755009_s_at) / RFU RHOB (11743442_s_at) / Fold change /veh RHOB (11743442_s_at) / RFU RGS16 (11720943_a_at) / Fold change /veh RGS16 (11720943_a_at) / RFU RGS16 (11720944_at) / Fold change /veh RGS16 (11720944_at) / RFU, VPS4B / Fold change vs veh, VPS4B / RFU, CREB1 / Fold change vs veh, CREB1 / RFU, DNAJC13 / Fold change vs veh, DNAJC13 / RFU, GNAQ / Fold change vs veh, GNAQ / RFU, CDK5R1 / Fold change vs veh, CDK5R1 / RFU, ZRANB3 / Fold change vs veh, ZRANB3 / RFU, CUL4A / Fold change vs veh, CUL4A / RFU, CCNY / Fold change vs veh, CCNY / RFU, UFL1 / Fold change vs veh, UFL1 / RFU, COG3 / Fold change vs veh, COG3 / RFU, DIAPH2 / Fold change vs veh, DIAPH2 / RFU, SKA2 / Fold change vs veh, SKA2 / RFU, AFF3 / Fold change vs veh, AFF3 / RFU, LMF1 / Fold change vs veh, LMF1 / RFU, IPO11 / Fold change vs veh, IPO11 / RFU, DFFB / Fold change vs veh, DFFB / RFU, FOXP1 / Fold change vs veh, FOXP1 / RFU, CARD8 / Fold change vs veh, CARD8 / RFU, STRN3 / Fold change vs veh, STRN3 / RFU, ADK / Fold change vs veh, ADK / RFU, RASSF2 / Fold change vs veh, RASSF2 / RFU, WIPF1 / Fold change vs veh, WIPF1 / RFU, LARP1B / Fold change vs veh, LARP1B / RFU, RASA1 / Fold change vs veh, RASA1 / RFU, RB1 / Fold change vs veh, RB1 / RFU, PPFIA1 / Fold change vs veh, PPFIA1 / RFU, MAT2A / Fold change vs veh, MAT2A / RFU, CCT5 / Fold change vs veh, CCT5 / RFU, WDR92 / Fold change vs veh, WDR92 / RFU, CUX1 / Fold change vs veh, CUX1 / RFU, TTC7A / Fold change vs veh, TTC7A / RFU, TMEM135 / Fold change vs veh, TMEM135 / RFU, DEPTOR / Fold change vs veh, DEPTOR / RFU, CPM / Fold change vs veh, CPM / RFU, DNAJB6 / Fold change vs veh, DNAJB6 / RFU, CACNA2D3 / Fold change vs veh, CACNA2D3 / RFU, DTX4 / Fold change vs veh, DTX4 / RFU, TFCP2 / Fold change vs veh, TFCP2 / RFU, GMCL1 /// GMCL1P1 / Fold change vs veh, GMCL1 /// GMCL1P1 / RFU, AEBP2 / Fold change vs veh, AEBP2 / RFU, SNHG1 /// SNORD22 /// SNORD25 /// SNORD26 /// SNORD27 /// SNORD28 /// SNORD29 /// SNORD31 / Fold change vs veh, SNHG1 /// SNORD22 /// SNORD25 /// SNORD26 /// SNORD27 /// SNORD28 /// SNORD29 /// SNORD31 / Fold change (Aza/veh), C12orf56 (ProbeSet 11735607_a_at) / Fold change (ACY-1035/veh), C12orf56 (ProbeSet 11735607_a_at) / Fold change (Aza/veh), FGFR1OP (ProbeSet 11751329_s_at) / Fold change (ACY-1035/veh), FGFR1OP (ProbeSet 11751329_s_at) / Fold change (Aza/veh), VPS36 (ProbeSet 11739960_a_at) / Fold change (ACY-1035/veh), VPS36 (ProbeSet 11739960_a_at) / RFU SYPL1 (11715823_x_at) / Fold change /veh SYPL1 (11715823_x_at) / RFU IGFBP7 (11715501_s_at) / Fold change /veh IGFBP7 (11715501_s_at) / RFU REEP3 (11722064_at) / Fold change /veh REEP3 (11722064_at) / RFU IGLL1 (11728026_x_at) / Fold change /veh IGLL1 (11728026_x_at): dose or concentration left out as unconfirmed", "conditions": "ProbeSet 11747937_a_at; LIST D"}
{"compound": "Nc1ncn([C@@H]2O[C@H](CO)[C@@H](O)[C@H]2O)c(=O)n1", "note": "[azacitidine]", "values": [{"measurement": "RFU, DNAJB6", "value": 212.79, "unit": "RFU"}]}
